{"source": "patent US8552176B2", "about": "(priority 2010, dated 2013)", "key": {"[1]": {"tested_on": "UO-31", "assay": "NCI 60 Human Tumor Cell Line Anticancer Screen", "type": "cell-based", "settings": "UO-31, Renal"}, "[2]": {"tested_on": "SK-MEL-2", "assay": "NCI 60 Human Tumor Cell Line Anticancer Screen", "type": "cell-based", "settings": "SK-MEL-2, Melanoma"}, "[3]": {"tested_on": "Hep3b", "assay": "cells", "type": "cell-based, human", "settings": "read-out: GI50 Hep3b liver"}, "[4]": {"tested_on": "KM12", "assay": "NCI 60 Human Tumor Cell Line Anticancer Screen", "type": "cell-based", "settings": "KM12, Colon"}, "[5]": {"tested_on": "BT-549", "assay": "NCI 60 Human Tumor Cell Line Anticancer Screen", "type": "cell-based", "settings": "BT-549, Breast"}, "[6]": {"tested_on": "SKOV3", "assay": "cells", "type": "cell-based, human", "settings": "read-out: GI50 SKOV3 ovary"}, "[7]": {"tested_on": "DU-145", "assay": "cells", "type": "cell-based, human", "settings": "read-out: GI50 DU-145 prostate"}, "[8]": {"tested_on": "MCF7", "assay": "cells", "type": "cell-based, human", "settings": "read-out: GI50 MCF7 breast"}, "[9]": {"tested_on": "SK-MEL-5", "assay": "NCI 60 Human Tumor Cell Line Anticancer Screen", "type": "cell-based", "settings": "SK-MEL-5, Melanoma"}, "[10]": {"tested_on": "MDA-MB-231", "assay": "NCI 60 Human Tumor Cell Line Anticancer Screen", "type": "cell-based", "settings": "MDA-MB-231, Breast"}, "[11]": {"tested_on": "ten-member panel of human carcinomas", "assay": "cells", "type": "cell-based"}, "[12]": {"tested_on": "PC-3", "assay": "NCI 60 Human Tumor Cell Line Anticancer Screen", "type": "cell-based", "settings": "PC-3, Prostate"}, "[13]": {"tested_on": "SW-620", "assay": "NCI 60 Human Tumor Cell Line Anticancer Screen", "type": "cell-based", "settings": "SW-620, Colon"}, "[14]": {"tested_on": "NCI/ADR-RES", "assay": "NCI 60 Human Tumor Cell Line Anticancer Screen", "type": "cell-based", "settings": "Ovary"}, "[15]": {"tested_on": "CCRF-CEM", "assay": "NCI 60 Human Tumor Cell Line Anticancer Screen", "type": "cell-based", "settings": "Leukemia"}, "[16]": {"tested_on": "MDA-MB-468", "assay": "NCI 60 Human Tumor Cell Line Anticancer Screen", "type": "cell-based", "settings": "MDA-MB-468, Breast"}, "[17]": {"tested_on": "OVCAR-3", "assay": "NCI 60 Human Tumor Cell Line Anticancer Screen", "type": "cell-based", "settings": "OVCAR-3, Ovary"}, "[18]": {"tested_on": "HOP-92", "assay": "NCI 60 Human Tumor Cell Line Anticancer Screen", "type": "cell-based", "settings": "HOP-92, Non-small cell lung"}, "[19]": {"tested_on": "HCC-2998", "assay": "NCI 60 Human Tumor Cell Line Anticancer Screen", "type": "cell-based", "settings": "HCC-2998, Colon"}, "[20]": {"tested_on": "HS 578T", "assay": "NCI 60 Human Tumor Cell Line Anticancer Screen", "type": "cell-based", "settings": "Breast"}, "[21]": {"tested_on": "SN12C", "assay": "NCI 60 Human Tumor Cell Line Anticancer Screen", "type": "cell-based", "settings": "Renal"}, "[22]": {"tested_on": "LOX IMVI", "assay": "NCI 60 Human Tumor Cell Line Anticancer Screen", "type": "cell-based", "settings": "Melanoma"}, "[23]": {"tested_on": "MOLT-4", "assay": "NCI 60 Human Tumor Cell Line Anticancer Screen", "type": "cell-based", "settings": "MOLT-4, Leukemia"}, "[24]": {"tested_on": "A498", "assay": "NCI 60 Human Tumor Cell Line Anticancer Screen", "type": "cell-based", "settings": "A498, Renal"}, "[25]": {"tested_on": "OVCAR-5", "assay": "NCI 60 Human Tumor Cell Line Anticancer Screen", "type": "cell-based", "settings": "OVCAR-5, Ovary"}, "[26]": {"tested_on": "ACHN", "assay": "NCI 60 Human Tumor Cell Line Anticancer Screen", "type": "cell-based", "settings": "Renal"}, "[27]": {"tested_on": "MDA-MB-435", "assay": "NCI 60 Human Tumor Cell Line Anticancer Screen", "type": "cell-based", "settings": "MDA-MB-435, Melanoma"}, "[28]": {"tested_on": "HCT-15", "assay": "cells", "type": "cell-based, human"}, "[29]": {"tested_on": "NCI-H322M", "assay": "NCI 60 Human Tumor Cell Line Anticancer Screen", "type": "cell-based", "settings": "Non-small cell lung"}, "[30]": {"tested_on": "K-562", "assay": "NCI 60 Human Tumor Cell Line Anticancer Screen", "type": "cell-based", "settings": "K-562, Leukemia"}}}
{"molecule": "CON(CCCCc1ccc(N(CCCl)CCCl)cc1)C1OCC(O)C1O", "note": "(centres unmarked) [Compound 60]", "values": [{"measurement": "GI50", "setting": "[1]", "result": 0.856, "unit": "µM"}, {"measurement": "Inhibition at 10 μM", "setting": "[1]; 10 μM", "result": 54.43, "unit": "%"}, {"measurement": "GI50", "setting": "[2]", "result": 20.2, "unit": "µM"}, {"measurement": "Inhibition at 10 μM", "setting": "[2]; 10 μM", "result": 100.16, "unit": "%"}, {"measurement": "GI50", "setting": "[3]", "result": "0.67 ± 0.06", "unit": "µM"}, {"measurement": "GI50", "setting": "[4]", "result": 30, "unit": "µM"}, {"measurement": "Inhibition at 10 μM", "setting": "[4]; 10 μM", "result": 97.57, "unit": "%"}, {"measurement": "GI50", "setting": "[5]", "result": 13.4, "unit": "µM"}, {"measurement": "Inhibition at 10 μM", "setting": "[5]; 10 μM", "result": 38.53, "unit": "%"}, {"measurement": "GI50", "setting": "[6]", "result": "1.5 ± 0.1", "unit": "µM"}, {"measurement": "GI50", "setting": "[7]", "result": "1.8 ± 0.1", "unit": "µM"}, {"measurement": "GI50", "setting": "[8]", "result": "1.8 ± 0.1", "unit": "µM"}, {"measurement": "GI50", "setting": "[9]", "result": 17.7, "unit": "µM"}, {"measurement": "Inhibition at 10 μM", "setting": "[9]; 10 μM", "result": 79.00, "unit": "%"}, {"measurement": "GI50", "setting": "[10]", "result": 1.39, "unit": "µM"}, {"measurement": "Inhibition at 10 μM", "setting": "[10]; 10 μM", "result": 87.54, "unit": "%"}, {"measurement": "improvement in average growth inhibition across the cell panel", "setting": "[11]", "result": 8, "unit": "fold"}, {"measurement": "increases in potency compared to 1", "setting": "[11]", "result": "up to 15 fold"}, {"measurement": "GI50", "setting": "[12]", "result": 11.7, "unit": "µM"}, {"measurement": "Inhibition at 10 μM", "setting": "[12]; 10 μM", "result": 72.52, "unit": "%"}, {"measurement": "GI50", "setting": "[13]", "result": 12.4, "unit": "µM"}, {"measurement": "Inhibition at 10 μM", "setting": "[13]; 10 μM", "result": 68.08, "unit": "%"}, {"measurement": "GI50", "setting": "[14]", "result": 4.61, "unit": "µM"}, {"measurement": "Inhibition at 10 μM", "setting": "[14]; 10 μM", "result": 61.54, "unit": "%"}, {"measurement": "GI50", "setting": "[15]", "result": 2.36, "unit": "µM"}, {"measurement": "Inhibition at 10 μM", "setting": "[15]; 10 μM", "result": 21.19, "unit": "%"}, {"measurement": "GI50", "setting": "[16]", "result": 7.25, "unit": "µM"}, {"measurement": "Inhibition at 10 μM", "setting": "[16]; 10 μM", "result": 43.87, "unit": "%"}, {"measurement": "GI50", "setting": "[17]", "result": 15.3, "unit": "µM"}, {"measurement": "Inhibition at 10 μM", "setting": "[17]; 10 μM", "result": 85.34, "unit": "%"}, {"measurement": "GI50", "setting": "[18]", "result": 4.03, "unit": "µM"}, {"measurement": "Inhibition at 10 μM", "setting": "[18]; 10 μM", "result": 58.81, "unit": "%"}, {"measurement": "Inhibition at 10 μM", "setting": "[19]", "result": 73.29, "unit": "%"}, {"measurement": "GI50", "setting": "[20]", "result": 24.7, "unit": "µM"}, {"measurement": "Inhibition at 10 μM", "setting": "[20]; 10 μM", "result": 139.25, "unit": "%"}, {"measurement": "GI50", "setting": "[21]", "result": 7.06, "unit": "µM"}, {"measurement": "Inhibition at 10 μM", "setting": "[21]; 10 μM", "result": 54.23, "unit": "%"}, {"measurement": "GI50", "setting": "[22]", "result": 8.61, "unit": "µM"}, {"measurement": "Inhibition at 10 μM", "setting": "[22]; 10 μM", "result": 54.82, "unit": "%"}, {"measurement": "GI50", "setting": "[23]", "result": 1.22, "unit": "µM"}, {"measurement": "Inhibition at 10 μM", "setting": "[23]; 10 μM", "result": 64.41, "unit": "%"}, {"measurement": "GI50", "setting": "[24]", "result": 21.8, "unit": "µM"}, {"measurement": "Inhibition at 10 μM", "setting": "[24]; 10 μM", "result": 114.47, "unit": "%"}, {"measurement": "Inhibition at 10 μM", "setting": "[25]", "result": 111.11, "unit": "%"}, {"measurement": "GI50", "setting": "[26]", "result": 4.34, "unit": "µM"}, {"measurement": "Inhibition at 10 μM", "setting": "[26]; 10 μM", "result": 14.27, "unit": "%"}, {"measurement": "GI50", "setting": "[27]", "result": 21.1, "unit": "µM"}, {"measurement": "Inhibition at 10 μM", "setting": "[27]; 10 μM", "result": 83.03, "unit": "%"}, {"measurement": "improved activity over the parent drug", "setting": "[28]", "result": 15, "unit": "fold"}, {"measurement": "GI50", "setting": "[28]; read-out: GI50 HCT-15 colorectal", "result": "0.53 ± 0.05", "unit": "µM"}, {"measurement": "GI50", "setting": "[29]", "result": "> 100", "unit": "µM"}, {"measurement": "Inhibition at 10 μM", "setting": "[29]; 10 μM", "result": 99.02, "unit": "%"}, {"measurement": "Inhibition at 10 μM", "setting": "[30]", "result": 88.55, "unit": "%"}]}
